Data: patent US20260234129A1, “NOVEL IMIDAZOLE DERIVATIVE AND USE THEREOF” (PELEMED CO., LTD., priority 2023, published 2026)
Where two headings read alike, the source gives them in different places.

What was measured:
[1] = system: BaF3-ITD-FLT3 D835Y cell line; experiment: Cell proliferation inhibition, Alamar Blue; assay type: cell-based; conditions: 72 hours of compound treatment, read-out: Cellular (GI50) BaF3-ITD-FLT3 D835Y
Experimental: (§1) The cell proliferation inhibition experiment on acute myeloid leukemia (AML) cell lines was performed using FL3-ITD-expressing AML cell line MV4-11, BaF3-ITD-FLT3 F691L cell line, and BaF3-ITD-FLT3 D835Y cell line to test FLT3 inhibitory activity. All cell lines were human-derived cell lines, and the sources and culture conditions for each cell line are as follows.
(§2) Cell viability was assessed by a resazurin redox-based assay using the Alamar Blue Assay kit (Invitrogen, USA). Specifically, MV4-11, BaF3-ITD-FLT3-F691L, and BaF3-ITD-FLT3-D835Y cells were plated in 384-well plates at 8,000 cells in 45 μL of medium. As a negative control, dimethyl sulfoxide (DMSO) was added together with the compound. After three days (72 hours) of compound treatment, 5 μL of the Alamar Blue kit reagent was added to each well of the 384-well plates, followed by incubation at 37° C. for 2 hours in a humidified CO2 incubator. After incubation, fluorescence intensity (Flu) was measured at 544 nm and 590 nm using a SpectraMax iD3 Multi Mode Microplate Reader (Molecular Devices, ID3-STD).

[2] = system: BaF3-ITD-FLT3 F691L cell line; experiment: Cell proliferation inhibition, Alamar Blue; assay type: cell-based; conditions: 72 hours of compound treatment, read-out: Cellular (GI50) BaF3-ITD-FLT3 F691L
Experimental: as §1, §2

[3] = system: MV4-11 cells (FLT3-ITD-expressing AML cell line); experiment: Cell proliferation inhibition, Alamar Blue; assay type: cell-based, human; conditions: read-out: Cellular (GI50) MV4-11
Experimental: as §1, §2

FLT3 = target: T1, FLT3 (Homo sapiens, UniProt P36888); experiment: ADP-Glo kinase assay FLT3 WT; assay type: biochemical; conditions: recombinant FLT3, 120 minutes at room temperature, read-out: Enzyme (IC50) FLT3 WT
T1 construct: Recombinant proteins containing FLT3 and FLT3(D835Y) domains were purchased from Promega; purchased Promega V4064
T1 sequence (P36888 610-943 limits assumed): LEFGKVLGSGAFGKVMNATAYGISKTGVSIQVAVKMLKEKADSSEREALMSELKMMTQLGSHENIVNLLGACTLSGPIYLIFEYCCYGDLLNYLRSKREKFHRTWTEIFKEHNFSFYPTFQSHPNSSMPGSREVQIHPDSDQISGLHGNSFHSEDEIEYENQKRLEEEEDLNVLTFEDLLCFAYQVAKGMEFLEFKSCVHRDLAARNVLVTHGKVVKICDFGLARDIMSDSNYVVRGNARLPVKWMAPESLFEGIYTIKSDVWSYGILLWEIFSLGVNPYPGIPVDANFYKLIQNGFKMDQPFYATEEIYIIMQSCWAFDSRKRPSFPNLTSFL
Experimental: FLT3 activity inhibition was measured using the ADP-Glo kinase assay method (Promega, cat #V9101). The ADP-Glo kinase assay method is a luminescent ADP detection assay method that provides a homogeneous, high-throughput screening method for measuring kinase activity by quantifying the amount of ADP produced during the kinase reaction.
The assay was performed in two steps. First, after the kinase reaction, an equal volume of ADP-Glo™ reagent was added to terminate the kinase reaction and deplete any remaining ATP. Second, a kinase detection reagent was added to convert ADP to ATP, and simultaneously the newly synthesized ATP was measured via the luciferase/luciferin reaction. The light produced was measured using a luminometer.
Recombinant proteins containing FLT3 and FLT3(D835Y) domains were purchased from Promega (cat #V4064, cat #V4514), respectively. According to the manufacturer's instructions, the optimal enzyme, ATP, and substrate concentrations were optimized using the ADP-Glo™ kinase assay method (Promega, USA). […] Thereafter, ADP-Glo™ reagent (5 μl) was added and reacted for an additional 40 minutes at room temperature. Finally, the detection reagent (kinase detection reagent, 10 μl) was added, followed by reaction at room temperature for 30 minutes, and the phosphorylation of the substrate peptide was measured by detecting the luciferase signal (integration time 0.5~1 sec) using a SpectraMax ID5 reader (Molecular Devices LLC., San Jose, CA, USA).

[4] = Homo sapiens, MV4-11, 72 hours of compound treatment

SMILES	GI50 [3, 4] [nM]	also measured
O=C(NCC1CC(F)(F)C1)c1ccc2[nH]nc(-c3nc4ccc(N5CCCC5)cc4[nH]3)c2c1 [Example 14, N-((3,3-difluorocyclobutyl)methyl)-3-(6-(pyrrolidin-1-yl)-1H-benzo[d]imidazol-2-yl)-1H-indazole-5-carboxamide]	10 to 100	GI50 [1]: 10 to 100 nM; GI50 [2]: 100 to 1000 nM
NCCCNC(=O)c1ccc2[nH]nc(-c3nc4ccc(CN5CCOCC5)cc4[nH]3)c2c1 [Example 26, N-(3-aminopropyl)-3-(6-(morpholinomethyl)-1H-benzo[d]imidazol-2-yl)-1H-indazole-5-carboxamide]	100 to 1000	IC50 (FLT3): < 10 nM
O=C(NCCCC(F)(F)F)c1ccc2[nH]nc(-c3nc4ccc(N5CCCC5)cc4[nH]3)c2c1 [Example 13, 3-(6-(pyrrolidin-1-yl)-1H-benzo[d]imidazol-2-yl)-N-(4,4,4-trifluorobutyl)-1H-indazole-5-carboxamide]	10 to 100	GI50 [1]: 10 to 100 nM; GI50 [2]: 10 to 100 nM
COc1ccc2nc(-c3n[nH]c4ccc(C(=O)NCCCN(C)C)cc34)[nH]c2c1 [Example 11, N-(3-(dimethylamino)propyl)-3-(6-methoxy-1H-benzo[d]imidazol-2-yl)-1H-indazole-5-carboxamide]	< 10	IC50 (FLT3): < 10 nM
N[C@H]1CC[C@H](NC(=O)c2ccc3[nH]nc(-c4nc5ccc(-c6ccco6)cc5[nH]4)c3c2)C1 [Example 80, N-((1S,3S)-3-aminocyclopentyl)-3-(6-(furan-2-yl)-1H-benzo[d]imidazol-2-yl)-1H-indazole-5-carboxamide]	< 10	GI50 [1]: < 10 nM; GI50 [2]: 10 to 100 nM
O=C(N[C@@H]1[C@@H]2CNC[C@@H]21)c1ccc2[nH]nc(-c3nc4ccc(N5CCOCC5)cc4[nH]3)c2c1 [Example 71, N-((1R,5S,6r)-3-azabicyclo[3.1.0]hexan-6-yl)-3-(6-morpholino-1H-benzo[d]imidazol-2-yl)-1H-indazole-5-carboxamide]		GI50 ([3]; 72 hours of compound treatment): 10 to 100 nM
O=C(c1ccc2[nH]nc(-c3nc4ccc(N5CCOCC5)cc4[nH]3)c2c1)N1C[C@H]2C[C@@H]1CN2 [Example 65, ((1R,4R)-2,5-diazabicyclo[2.2.1]heptan-2-yl)(3-(6-morpholino-1H-benzo[d]imidazol-2-yl)-1H-indazol-5-yl)methanone]	10 to 100	
CC(=O)N1CC2(C1)CN(C(=O)c1ccc3[nH]nc(-c4nc5ccc(N6CCOCC6)cc5[nH]4)c3c1)C2 [Example 60, 1-(6-(3-(6-morpholino-1H-benzo[d]imidazol-2-yl)-1H-indazole-5-carbonyl)-2,6-diazaspiro[3.3]heptan-2-yl)ethan-1-one]	> 1000	
CC(C)n1c(-c2n[nH]c3ccc(C(=O)NCCCN)cc23)nc2ccc(F)cc21 [Example 105, N-(3-aminopropyl)-3-(6-fluoro-1-isopropyl-1H-benzo[d]imidazol-2-yl)-1H-indazole-5-carboxamide]	> 1000	
Cc1ccc2nc(-c3n[nH]c4ccc(C(=O)NCCCN(C)C)cc34)[nH]c2c1 [Example 12, N-(3-(dimethylamino)propyl)-3-(6-methyl-1H-benzo[d]imidazol-2-yl)-1H-indazole-5-carboxamide]	< 10	IC50 (FLT3): < 10 nM
NCCCNC(=O)c1ccc2[nH]nc(-c3ncc(-c4cccc(N5CCOCC5)c4)[nH]3)c2c1 [Example 91, N-(3-aminopropyl)-3-(5-(3-morpholinophenyl)-1H-imidazol-2-yl)-1H-indazole-5-carboxamide]	10 to 100	
CN1CCN(C(=O)c2ccc3[nH]nc(-c4nc(-c5ccccc5)c[nH]4)c3c2)CC1 [Example 99, (4-methylpiperazin-1-yl)(3-(4-phenyl-1H-imidazol-2-yl)-1H-indazol-5-yl)methanone]	> 1000	
CN(C)CCNC(=O)c1ccc2[nH]nc(-c3nc(-c4ccccc4)c[nH]3)c2c1 [Example 95, N-(2-(dimethylamino)ethyl)-3-(4-phenyl-1H-imidazol-2-yl)-1H-indazole-5-carboxamide]	100 to 1000	
CN(C)CCCNC(=O)c1ccc2[nH]nc(-c3nc4ccc(F)cc4[nH]3)c2c1 [Example 36, N-(3-(dimethylamino)propyl)-3-(6-fluoro-1H-benzo[d]imidazol-2-yl)-1H-indazole-5-carboxamide]	10 to 100	
O=C(c1ccc2[nH]nc(-c3nc4ccc(N5CCOCC5)cc4[nH]3)c2c1)N1C[C@@H]2C[C@H]1CN2 [Example 66, ((1S,4S)-2,5-diazabicyclo[2.2.1]heptan-2-yl)(3-(6-morpholino-1H-benzo[d]imidazol-2-yl)-1H-indazol-5-yl)methanone]	10 to 100	
NCCCNC(=O)c1ccc2c(-c3nc4ccc(F)cc4[nH]3)n[nH]c2c1 [Example 110, N-(3-aminopropyl)-3-(6-fluoro-1H-benzo[d]imidazol-2-yl)-1H-indazole-6-carboxamide]	> 1000	
NCCNC(=O)c1ccc2[nH]nc(-c3nc4ccc(F)cc4[nH]3)c2c1 [Example 37, N-(2-aminoethyl)-3-(6-fluoro-1H-benzo[d]imidazol-2-yl)-1H-indazole-5-carboxamide]	10 to 100	
NC1CCN(CCNC(=O)c2ccc3[nH]nc(-c4nc(-c5ccccc5)c[nH]4)c3c2)CC1 [Example 103, N-(2-(4-aminopiperidin-1-yl)ethyl)-3-(4-phenyl-1H-imidazol-2-yl)-1H-indazole-5-carboxamide]	> 1000	
CNC1CCN(C(=O)c2ccc3[nH]nc(-c4nc5ccc(N6CCOCC6)cc5[nH]4)c3c2)CC1 [Example 70, (4-(methylamino)piperidin-1-yl)(3-(6-morpholino-1H-benzo[d]imidazol-2-yl)-1H-indazol-5-yl)methanone]	10 to 100	
O=C(NCCCO)c1ccc2[nH]nc(-c3nc4ccc(F)cc4[nH]3)c2c1 [Example 111, 3-(6-fluoro-1H-benzo[d]imidazol-2-yl)-N-(3-hydroxypropyl)-1H-indazole-5-carboxamide]	100 to 1000	
NCCCNC(=O)c1ccc2[nH]nc(-c3ncc(-c4cccc(N)c4)[nH]3)c2c1 [Example 93, 3-(5-(3-aminophenyl)-1H-imidazol-2-yl)-N-(3-aminopropyl)-1H-indazole-5-carboxamide]	100 to 1000	
NCCCNC(=O)c1ccc2[nH]nc(-c3ncc(COc4ccccc4)[nH]3)c2c1 [Example 115, N-(3-aminopropyl)-3-(5-(phenoxymethyl)-1H-imidazol-2-yl)-1H-indazole-5-carboxamide]	> 1000	
CC(=O)N1CC(CNC(=O)c2ccc3[nH]nc(-c4nc5ccc(N6CCOCC6)cc5[nH]4)c3c2)C1 [Example 61, N-((1-acetylazetidin-3-yl)methyl)-3-(6-morpholino-1H-benzo[d]imidazol-2-yl)-1H-indazole-5-carboxamide]	> 1000	
COc1cccc(-c2cnc(-c3n[nH]c4ccc(C(=O)NCCCN)cc34)[nH]2)c1 [Example 88, N-(3-aminopropyl)-3-(5-(3-methoxyphenyl)-1H-imidazol-2-yl)-1H-indazole-5-carboxamide]	10 to 100	
CN(C)CCNC(=O)c1ccc2[nH]nc(-c3nc4ccc(F)cc4[nH]3)c2c1 [Example 35, N-(2-(dimethylamino)ethyl)-3-(6-fluoro-1H-benzo[d]imidazol-2-yl)-1H-indazole-5-carboxamide]	10 to 100	
NC1CCN(CCNC(=O)c2ccc3[nH]nc(-c4nc5ccccc5[nH]4)c3c2)CC1 [Example 8, N-(2-(4-aminopiperidin-1-yl)ethyl)-3-(1H-benzo[d]imidazol-2-yl)-1H-indazole-5-carboxamide]	10 to 100	
